Laboratory results reported in patent US9944603B2, “Compounds and methods for the treatment of cystic fibrosis” (Flatley Discovery Lab, LLC, priority 2013, dated 2018).

Molecular target: T1, human F508del CFTR (Homo sapiens, UniProt P13569, DEL508-508)
T1 construct: expressed in transfected cells
Experiment: CFTR-YFP Assay, CFTR Corrector Protocol (YFP flux assay)
Format: cell-based
Conditions: for Emax: normalized to the positive control, read-out: EMAX (% Efficacy, EMAX normalized to the positive control)

T1 sequence (P13569 with tags, fused parts or gaps DEL508-508): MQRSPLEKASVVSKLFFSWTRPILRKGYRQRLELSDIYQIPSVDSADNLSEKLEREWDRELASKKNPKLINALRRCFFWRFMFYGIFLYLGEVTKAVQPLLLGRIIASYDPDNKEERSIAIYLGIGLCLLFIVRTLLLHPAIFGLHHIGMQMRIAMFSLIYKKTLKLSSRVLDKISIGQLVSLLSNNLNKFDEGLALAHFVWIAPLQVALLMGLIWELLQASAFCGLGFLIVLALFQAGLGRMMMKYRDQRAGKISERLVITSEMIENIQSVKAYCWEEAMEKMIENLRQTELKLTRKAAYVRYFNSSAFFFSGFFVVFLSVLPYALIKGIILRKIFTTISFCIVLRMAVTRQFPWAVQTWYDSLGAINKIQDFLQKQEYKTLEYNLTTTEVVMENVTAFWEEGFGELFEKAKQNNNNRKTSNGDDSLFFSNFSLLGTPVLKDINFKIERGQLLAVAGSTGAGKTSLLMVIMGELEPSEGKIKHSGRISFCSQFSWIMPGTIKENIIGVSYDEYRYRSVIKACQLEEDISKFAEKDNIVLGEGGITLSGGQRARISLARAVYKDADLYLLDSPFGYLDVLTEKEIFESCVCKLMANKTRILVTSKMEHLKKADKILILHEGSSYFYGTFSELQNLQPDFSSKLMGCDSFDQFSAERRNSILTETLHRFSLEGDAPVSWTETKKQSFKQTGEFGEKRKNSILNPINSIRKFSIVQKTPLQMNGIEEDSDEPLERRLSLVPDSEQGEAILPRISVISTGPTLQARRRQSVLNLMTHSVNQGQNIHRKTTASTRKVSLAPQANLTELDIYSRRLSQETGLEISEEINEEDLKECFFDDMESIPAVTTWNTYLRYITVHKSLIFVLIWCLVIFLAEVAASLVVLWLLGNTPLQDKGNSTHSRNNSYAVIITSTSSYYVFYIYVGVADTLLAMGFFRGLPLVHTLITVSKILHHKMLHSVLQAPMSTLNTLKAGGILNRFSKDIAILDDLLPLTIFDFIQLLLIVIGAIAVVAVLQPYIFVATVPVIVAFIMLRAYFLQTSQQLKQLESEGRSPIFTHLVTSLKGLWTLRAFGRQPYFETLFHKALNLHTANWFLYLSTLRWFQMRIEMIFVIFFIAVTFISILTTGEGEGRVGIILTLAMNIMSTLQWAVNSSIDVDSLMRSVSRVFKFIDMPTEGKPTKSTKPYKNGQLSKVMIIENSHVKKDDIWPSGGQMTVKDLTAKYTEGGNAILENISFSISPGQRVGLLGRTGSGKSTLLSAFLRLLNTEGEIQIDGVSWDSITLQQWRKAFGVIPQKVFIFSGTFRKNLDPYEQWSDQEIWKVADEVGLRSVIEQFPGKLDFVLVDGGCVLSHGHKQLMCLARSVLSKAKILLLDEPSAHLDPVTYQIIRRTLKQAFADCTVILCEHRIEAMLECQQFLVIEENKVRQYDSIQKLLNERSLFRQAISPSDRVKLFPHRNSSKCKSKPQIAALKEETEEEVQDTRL

Compound | EC50 | Emax
O=S(=O)(c1ccc2c(c1)OC(F)(F)O2)N1CCC(n2c(-c3ccncc3Cl)nc3cccnc32)CC1 [Example 38] | < 10 µM | > 80%
O=S(=O)(c1ccc2c(c1)OC(F)(F)O2)N1CCC(n2c(-c3ccccc3Cl)nc3cccnc32)CC1 [Example 39] | < 10 µM | 30 to 80%
O=S(=O)(c1ccc2c(c1)OC(F)(F)O2)N1CCC(n2c(-c3ccncc3Cl)nc3ncccc32)CC1 [Example 40] | < 10 µM | 30 to 80%
CCc1ccc(S(=O)(=O)N2CCC(n3c(-c4ccncc4Cl)nc4cccnc43)CC2)cc1 [Example 41] | < 10 µM | 30 to 80%
CCc1ccc(S(=O)(=O)N2CCC(n3c(-c4ccncc4Cl)nc4ccc(OC)nc43)CC2)cc1 [Example 42] | < 10 µM | 30 to 80%
Cc1ccc2nc(-c3ccc(F)cc3F)n(C3CCN(S(=O)(=O)c4ccc5c(c4)OC(F)(F)O5)CC3)c2n1 [Example 43] | < 10 µM | 30 to 80%
[2H]C1([2H])Oc2ccc(S(=O)(=O)N3CCC(n4c(-c5ccncc5Cl)nc5cccnc54)CC3)cc2O1 [Example 44] | < 10 µM | 30 to 80%
CCc1ccc(S(=O)(=O)N2CCC(n3c(-c4cccnc4Cl)nc4cccnc43)CC2)cc1 [Example 45] | < 10 µM | 30 to 80%
O=S(=O)(c1ccc(OC(F)F)cc1)N1CCC(n2c(-c3ccccc3Cl)nc3cccnc32)CC1 [Example 46] | < 10 µM | 30 to 80%
CCc1ccc(S(=O)(=O)N2CCC(n3c(-c4ccc(F)cc4F)nc4cccnc43)CC2)cc1 [Example 47] | < 10 µM | 30 to 80%
O=S(=O)(c1ccc2c(c1)OC(F)(F)O2)N1CCC(n2c(-c3ccccc3)nc3cccnc32)CC1 [Example 48] | < 10 µM | 30 to 80%
COc1ccc(S(=O)(=O)N2CCC(n3c(-c4ccccc4C(F)(F)F)nc4cccnc43)CC2)cc1Cl [Example 49] | < 10 µM | 30 to 80%
COc1ccc(S(=O)(=O)N2CCC(n3c(-c4ccccc4C#N)nc4cccnc43)CC2)cc1Cl [Example 50] | < 10 µM | 30 to 80%
O=S(=O)(c1ccc2c(c1)CCC2)N1CCC(n2c(-c3ccncc3F)nc3cccnc32)CC1 [Example 51] | < 10 µM | 30 to 80%
O=S(=O)(c1ccc2c(c1)OC(F)(F)O2)N1CCC(n2c(-c3ccncc3F)nc3cccnc32)CC1 [Example 52] | < 10 µM | 30 to 80%
COc1ccc(S(=O)(=O)N2CCC(n3c(-c4ccc(F)cc4F)nc4cccnc43)CC2)cc1Cl [Example 53] | < 10 µM | 30 to 80%
Cc1ccc2nc(-c3ncccc3Cl)n(C3CCN(S(=O)(=O)c4ccc5c(c4)OC(F)(F)O5)CC3)c2n1 [Example 54] | < 10 µM | 30 to 80%
COc1ccc(S(=O)(=O)N2CCC(n3c(-c4ccccc4OC)nc4cccnc43)CC2)cc1Cl [Example 55] | < 10 µM | 30 to 80%
O=S(=O)(c1ccc(OC(F)F)cc1)N1CCC(n2c(-c3ccncc3Cl)nc3cccnc32)CC1 [Example 56] | < 10 µM | 30 to 80%
COc1ccc(S(=O)(=O)N2CCC(n3c(-c4ccc5c(c4)OCO5)nc4cccnc43)CC2)cc1Cl [Example 57] | < 10 µM | 30 to 80%
COc1ccc2nc(-c3ccncc3Cl)n(C3CCN(S(=O)(=O)c4ccc(OC)c(Cl)c4)CC3)c2n1 [Example 58] | < 10 µM | 10 to 30%
Cc1ccc(S(=O)(=O)N2CCC(n3c(-c4ccccc4Cl)nc4cccnc43)CC2)cc1 [Example 59] | < 10 µM | 30 to 80%
COc1ccc(S(=O)(=O)N2CCC(n3c(-c4ccccc4Cl)nc4cccnc43)CC2)cc1F [Example 60] | < 10 µM | 30 to 80%
Cc1ccc(S(=O)(=O)N2CCC(n3c(-c4ccccc4)nc4ccc(C)nc43)CC2)cc1 [Example 61] | < 10 µM | 30 to 80%
Cc1ccc2nc(-c3ccccc3)n(C3CCN(S(=O)(=O)c4ccc5c(c4)OCO5)CC3)c2n1 [Example 62] | < 10 µM | 30 to 80%
